Test results from patent US20020165221A1, “Mediators of hedgehog signaling pathways, compositions and uses related thereto” (priority 2000, published 2002).

How the values were obtained:
Hedgehog pathway = test: Gli-Luc assay (Hedgehog-responsive Luciferase reporter), 10T1/2(s12) cells with OCT-SHH; format: cell-based; conditions: OCT-SHH 0.3 μg/ml
Procedure: Compounds to be tested are dissolved in DMSO to a concentration of 10 MM, and stored at −20° C. To activate the Hedgehog pathway in the assay cells, an octylated (lipid-modified) form of the N-terminal fragment of the Sonic Hedgehog protein (OCT-SHH) is used. This N-terminal SHH fragment is produced bacterially.
Compounds may be tested in the “Gli-Luc” assay below, using the cell line 10T(s12), wherein the cells contain a Hedgehog-responsive reporter construct utilizing Luciferase as the reporter gene. In this way, Hedgehog pathway signaling activity can be measured via the Gli-Luc response.
10t1/2(s12) cells are plated in a 96-well micro-titer plate (MTP) at 20,000 cells/well in full medium [DMEM with 10% FBS]. Then plates are placed in the incubator for incubation overnight (O/N), at 37° C. and 5% CO2. After 24 h, the medium is replaced with Luciferase-assay medium (DMEM with 0.5% FBS). Compounds are thawed and diluted in assay medium at 3:1000 (about 300-fold) resulting in a starting concentration of about 30 μM.
Subsequently, 150 μl of each 30 μM sample is added to the first wells (in triplicate). The MTP samples are then diluted at 3-fold dilutions to a total of seven wells, ultimately resulting in a regiment of seven dilutions in triplicate, for each compound. Next, the protein ligand OCT-SHH is diluted in Luciferase-assay medium and added to each well at a final concentration of 0.3 μg/ml. Plates are then returned to the incubator for further incubation O/N, at 37° C. and 5% CO2. After about 24 h, plates are removed from the incubator and the medium is aspirated/discarded. Wells are washed once with assay buffer [PBS +1 mM Mg^2+and 1 mM Ca^2+]. Then 50 μl of assay buffer is added to each well. The Luciferase assay reagent is prepared as described by the vendor (LucLite kit from Packard), and 50 μl is added to each well. Plates are incubated at room temperature (RT) for about 30 minutes after which the signals are read, again at RT, on a Topcount (Packard).

[1] = test system: Ptc-null cells (gli-1 mRNA, Patched pathway); test: Ptc-null assay: gli-1 mRNA by RT-PCR and quantitative real-time PCR; format: cell-based, mouse; conditions: 3 days, 5 μM jervine
Procedure: Ptc-null cells were cultured for 3 days in the presence of vehicle; jervine, a known Patched pathway antagonist (i) used here as a positive control; or 1 μM of compound D. Total ribonucleic acid (RNA) was isolated from the cells and used for reverse transcriptase-polymerase chain reaction (RT-PCR). […] The gli-1 and actin mRNA samples were then loaded on 1.5% agarose gel and were detected by staining with ethidium bromide. The same samples were analyzed by the quantitative real-time polymerase chain reaction method to quantify the levels of gli-1 MRNA.

[2] = test system: Patched pathway / ultraviolet radiation-induced BCC tumors; test: Adult BCC mouse skin punch assay (UV-irradiated Ptc heterozygous transgenic mice); format: cell-based; conditions: jervine positive control, 6 days, vs vehicle
Procedure: Ptc heterozygous transgenic mice were irradiated 3 times weekly for 6 months, during which time many small, and often microscopic, BCC tumors developed. Four-mm diameter skin punch explants, presumably containing BCC structures, were cultured for 6 days in the presence of vehicle, the positive control […]), or 5 μM D. At the end of the experiment, the explants were analyzed by X-gal staining to detect the level of Patched pathway activity, by histology to determine the effect of treatment on the morphology of ultraviolet radiation-induced BCCs, and by quantifying the level of gli-1 mRNA expression to characterize the extent of pathway inhibition.

| Compound | IC50 (Hedgehog pathway) | further results |
| --- | --- | --- |
| COc1cccc(CN(C(=O)C2CCC2)C2CC(C(=O)N3CCNCC3)N(Cc3ccc4c(c3)OCCO4)C2)c1 (stereo not shown) [U′] | < 1 µM |  |
| CC(C)CN(C(=O)c1cccs1)C1CC(C(=O)NC2CCC(N)CC2)N(CC2CCCCC2)C1 (stereo not shown) [J′] | < 10 µM |  |
| COc1cccc(CN(C(=O)C2CC2)C2CC(C(=O)N3CCNCC3)N(Cc3ccc(C)s3)C2)c1 (stereo not shown) [B] | < 1 µM |  |
| COCC(=O)N(Cc1cccc(OC)c1)[C@H]1C[C@@H](C(=O)N2CCNCC2)N(Cc2ccc3c(c2)OCO3)C1 [P″] | < 10 µM |  |
| COc1cccc(CN(C(=O)C(C)C)C2CC(C(=O)N3CCNCC3)N(Cc3ccc(C)s3)C2)c1 (stereo not shown) [O] | < 0.1 µM |  |
| CC1=C2C(=O)[C@H]3[C@@H](CC=C4C[C@@H](O)CC[C@@]43C)[C@@H]2CC[C@]12O[C@@H]1C[C@H](C)CN[C@H]1[C@H]2C [jervine, reference compound] |  | gli-1 mRNA levels (quantitative real-time PCR) [1]: downregulated; expression of gli-1 mRNA (RT-PCR, agarose gel) ([1]; vs vehicle): significantly decreased; number and size of BCC structures (X-gal staining) [2]: greatly decreased |
| COc1cccc(CN(C(=O)CC(C)C)C2CC(C(=O)N3CCNCC3)N(Cc3ccc4c(c3)OCCO4)C2)c1 (stereo not shown) [H] | < 0.1 µM |  |
| Cc1ccc(CN2CC(N(Cc3cccs3)C(=O)c3cccs3)CC2C(=O)N2CCNCC2)s1 (stereo not shown) [D′] | < 10 µM |  |
| COc1cccc(CN(C(=O)CC(C)C)C2CC(C(=O)N3CCNCC3)N(Cc3ccsc3)C2)c1 (stereo not shown) [G] | < 1 µM |  |
| COc1cccc(CN(C(=O)CC(C)(C)C)[C@H]2C[C@@H](C(=O)N3CCNCC3)N(Cc3cc(C)c(C)o3)C2)c1 [G″] | < 1 µM |  |
| COc1cccc(CN(C(=O)CC(C)(C)C)C2CC(C(=O)N3CCNCC3)N(Cc3cc(Br)cs3)C2)c1 (stereo not shown) [L] | < 10 µM |  |
| COc1cccc(CN(C(=O)CC(C)(C)C)C2CC(C(=O)N3CCNCC3)N(Cc3ccc(OC)c(OC)c3OC)C2)c1 (stereo not shown) [K] | < 0.1 µM |  |
| COc1cccc(CN(C(=O)CC(C)(C)C)C2CC(C(=O)N3CCNCC3)N(Cc3ccc4c(c3)OCO4)C2)c1 (stereo not shown) [M] | < 1 µM |  |
| COc1cccc(CN(C(=O)CC(C)C)C2CC(C(=O)N3CCNCC3)N(Cc3ccc(OC)c(OC)c3OC)C2)c1 (stereo not shown) [Compound I] | < 10 µM |  |
| COc1cccc(CN(C(=O)C(C)C)C2CC(C(=O)N3CCNCC3)N(Cc3ccc4c(c3)OCO4)C2)c1 (stereo not shown) [P] | < 0.1 µM |  |
| COC(=O)c1ccsc1CN1CC(N(Cc2cccc(OC)c2)C(=O)CC(C)(C)C)CC1C(=O)N1CCNCC1 (stereo not shown) [B″] | < 1 µM |  |
| COc1cccc(CN(C(=O)c2cccs2)C2CC(C(=O)N3CCNCC3)N(Cc3ccc(C)s3)C2)c1 (stereo not shown) [A] | < 1 µM |  |
| COc1cccc(CN(C(=O)CC(C)(C)C)[C@H]2C[C@@H](C(=O)N3CCN[C@@H](C)C3)N(Cc3ccc4c(c3)OCO4)C2)c1 [Z″] | < 1 µM |  |
| COc1cccc(CN(C(=O)C(C)C)C2CC(C(=O)N3CCNCC3)N(Cc3ccc(OC)c(OC)c3OC)C2)c1 (stereo not shown) [P′] | < 10 µM |  |
| COc1cccc(CN(C(=O)CC(C)(C)C)C2CC(C(=O)N3CCNCC3)N(Cc3ccc4c(c3)OCCO4)C2)c1 (stereo not shown) [J] | < 0.1 µM |  |
| COc1cccc(CN(C(=O)CC(C)C)C2CC(C(=O)N3CCNCC3)N(Cc3ccc(C)s3)C2)c1 (stereo not shown) [X′] | < 0.1 µM |  |
| CC(C)CC(=O)N(Cc1cccc(C#N)c1)C1CC(C(=O)N2CCNCC2)N(Cc2ccc3c(c2)OCO3)C1 (stereo not shown) [S″] | < 1 µM |  |
| CC(C)CC(=O)N(Cc1cccc(O)c1)C1CC(C(=O)N2CCNCC2)N(Cc2ccc3c(c2)OCO3)C1 (stereo not shown) [T″] | < 1 µM |  |
| COc1cccc(CN(C(=O)CC(C)(C)C)[C@H]2C[C@@H](C(=O)N(C)C3CCNC3)N(Cc3ccc4c(c3)OCO4)C2)c1 (stereo partly shown) [D′″] | < 10 µM |  |
| COc1cccc(CN(C(=O)C2CC2)C2CC(C(=O)N3CCNCC3)N(Cc3ccc4c(c3)OCO4)C2)c1 (stereo not shown) [E] | < 0.1 µM |  |
| COc1cccc(CN(C(=O)C2CCC2)C2CC(C(=O)N3CCNCC3)N(Cc3ccc(OC)c(OC)c3OC)C2)c1 (stereo not shown) [T′] | < 1 µM |  |
| COc1cccc(CN(C(=O)C2CCCC2)C2CC(C(=O)N3CCNCC3)N(Cc3ccc(OC)c(OC)c3OC)C2)c1 (stereo not shown) [V′] | < 1 µM |  |
| COc1cccc(CN(C(=O)CC(C)(C)C)C2CC(C(=O)N3CCNCC3)N(Cc3ccccc3)C2)c1 (stereo not shown) [R] | < 1 µM |  |
| CCc1ccc(CN2CC(N(Cc3cccc(OC)c3)C(=O)CC(C)(C)C)CC2C(=O)N2CCNCC2)s1 (stereo not shown) [A″] | < 1 µM |  |
| COc1cccc(CN(C(=O)CC(C)CCC=C(C)C)C2CC(C(=O)N3CCNCC3)N(Cc3ccc4c(c3)OCO4)C2)c1 (stereo not shown) [Q″] | < 10 µM |  |

Further lines, with some results ahead:

| IC50 (Hedgehog pathway) | Compound | further results |
| --- | --- | --- |
| < 1 µM | COc1cccc(CN(C(=O)CC(C)(C)C)C2CC(C(=O)N3CCNCC3)N(Cc3ccc4c(c3)OCO4)C2)c1 (stereo not shown) [N] |  |
| < 1 µM | COc1cccc(CN(C(=O)CC(C)C)C2CC(C(=O)N3CCNCC3)N(Cc3ccc4c(c3)OCCO4)C2)c1 (stereo not shown) [R′] |  |
| < 1 µM | Cc1cccc(CN(C(=O)CC(C)C)[C@H]2C[C@@H](C(=O)N3CCNCC3)N(Cc3ccc4c(c3)OCO4)C2)c1 [R″] |  |
| < 0.1 µM | COc1cccc(CN(C(=O)NC(C)(C)C)[C@H]2C[C@@H](C(=O)N3CCNCC3)N(Cc3ccc4c(c3)OCO4)C2)c1 [I″] |  |
| < 10 µM | COc1cccc(CN2CC(N(CCc3ccccc3)Cc3ccccc3C)CC2C(=O)NCCN)c1 (stereo not shown) [G′] |  |
| < 1 µM | COc1cccc(CN2CC(N(Cc3cccc(OC)c3)C(=O)c3cccs3)CC2C(=O)N2CCNCC2)c1 (stereo not shown) [Q] |  |
| < 1 µM | COc1cccc(CN(C(=O)CC(C)(C)C)[C@H]2C[C@@H](C(=O)N3CCNCC3)N(Cc3ccc(Br)s3)C2)c1 [C″] |  |
| < 1 µM | COc1cccc(CN(C(=O)C2CC2)C2CC(C(=O)N3CCNCC3)N(Cc3ccc(F)cc3)C2)c1 (stereo not shown) [W] |  |
| < 1 µM | COc1cccc(CN(C(=O)CC(C)C(F)(F)F)C2CC(C(=O)N3CCNCC3)N(Cc3ccc4c(c3)OCO4)C2)c1 (stereo not shown) [L″] |  |
| < 10 µM | COc1cccc(CN(C(=O)CC(C)(C)C)[C@H]2C[C@@H](C(=O)N3CCNCC3)N(Cc3ccc(C=O)s3)C2)c1 [H″] |  |
| < 10 µM | NCCNC(=O)C1CC(N(CCc2ccccc2)Cc2ccc([N+](=O)[O-])cc2)CN1CC1CCCCC1 (stereo not shown) [F′] |  |
| < 10 µM | COc1cccc(CN(C(=O)CC(C)(C)C)C2CC(C(=O)N3CCNCC3)N(Cc3ccc(-c4cc(C(F)(F)F)n(C)n4)s3)C2)c1 (stereo not shown) [E″] |  |
| < 10 µM | NCCNC(=O)C1CC(N(CCc2ccccc2)C(=O)C2CCCCC2)CN1CC1CCCCC1 (stereo not shown) [B′] |  |
| < 1 µM | C=CCOC(=O)N(Cc1cccc(OC)c1)[C@H]1C[C@@H](C(=O)N2CCNCC2)N(Cc2ccc3c(c2)OCO3)C1 [M″] |  |
| < 1 µM | COc1cccc(CN(C(=O)CC2CCCC2)C2CC(C(=O)N3CCNCC3)N(Cc3ccc4c(c3)OCO4)C2)c1 (stereo not shown) [K″] |  |
| < 10 µM | COc1cccc(CN(C(=O)CC(C)(C)C)C2CC(C(=O)N3CCNCC3)N(Cc3ccc(F)cc3)C2)c1 (stereo not shown) [X] |  |
| < 0.1 µM | COc1cccc(CN(C(=O)CC(C)(C)C)C2CC(C(=O)N3CCNCC3)N(Cc3ccc(C)s3)C2)c1 (stereo not shown) [M′] |  |
| < 1 µM | COc1cccc(CN2CC(N(Cc3cccc(OC)c3)C(=O)C3CC3)CC2C(=O)N2CCNCC2)c1 (stereo not shown) [C] |  |
| < 10 µM | CC(C)CC(=O)N(Cc1cccc([N+](=O)[O-])c1)C1CC(C(=O)N2CCNCC2)N(Cc2ccc3c(c2)OCO3)C1 (stereo not shown) [U″] |  |
| < 1 µM | COc1cccc(CN(C(=O)C2CC2)C2CC(C(=O)N3CCNCC3)N(CC3CCCCC3)C2)c1 (stereo not shown) [S] |  |
